Literature values as cited in US20070254858A1, “Contraceptive and Acne Medication Combination and Treatment of Acne and Other Diseases with Reduced Side Effects” (priority 2006, published 2007).

Legend:
[1] = system: sebaceous gland / sebocytes
[2] = in vivo
severe acne = conditions: within 12 to 16 weeks of isotretinoin treatment
progesterone activity = conditions: 1 mg of progestin; activity of 1 mg of norethindrone taken as baseline
[3] = system: androgen (testosterone-like) activity; conditions: 1 mg of progestin; activity of 1 mg of norethindrone taken as baseline

CC1=C(/C=C/C(C)=C/C=C/C(C)=C\C(=O)O)C(C)(C)CCC1 [isotretinoin, 13-cis-retinoic acid]
reduction of sebocyte lipid synthesis ([1]; daily doses as low as 0.1 mg/kg after four weeks): 75% | reduction of sebaceous gland size ([1]; in vivo): up to 90% | most significant side effect [2]: teratogenicity (birth defects) | effect of food on absorption (drug taken with food): absorption is enhanced | accumulation in the skin (during long term administration): no progressive accumulation | parent drug in urine (oral isotretinoin): No parent drug is identified in the urine | placental transfer (oral isotretinoin): crosses the placenta | half-life (oral isotretinoin, compared to etretinate): 7 to 37 h | people with severe acne in complete or near complete cure (severe acne): Up to 90%

C#C[C@]1(OC(C)=O)CC[C@H]2[C@@H]3CCC4=CC(=O)CC[C@@H]4[C@H]3CC[C@@]21C [norethindrone acetate]
Progestational Activity (progesterone activity): 1.2

C[C@]12CCC(=O)C=C1[C@@H]1C[C@@H]1[C@H]1[C@@H]3[C@@H]4C[C@@H]4[C@@]4(CCC(=O)O4)[C@@]3(C)CC[C@@H]12 [drospirenone]
Progestational Activity (progesterone activity): 1.5 | Androgen Activity [3]: 0

C#C[C@]1(OC(C)=O)CC[C@H]2[C@@H]3CCC4=CC(=NO)CC[C@@H]4[C@H]3CC[C@@]21CC (mixture of isomers) [norgestimate]
Progestational Activity (progesterone activity): 1.3

C#C[C@]1(O)CC[C@H]2[C@@H]3CCC4=CC(=O)CC[C@@H]4[C@H]3CC[C@@]21C [norethindrone]
Progestational Activity (progesterone activity): 1

C#C[C@]1(O)CC[C@H]2[C@@H]3CCC4=CC(=NO)CC[C@@H]4[C@H]3CC[C@@]21CC (mixture of isomers) [norelgestromin]
Progestational Activity (progesterone activity): 1.3 | Androgen Activity [3]: 1.9

C#CC1(O)CC[C@H]2[C@@H]3CCC4=CC(=O)CC[C@@H]4[C@H]3CC[C@@]21CC (mixture of isomers) [dl-norgestrel]
Progestational Activity (progesterone activity): 2.6

C#C[C@]1(O)CC[C@H]2[C@@H]3CCC4=CCCC[C@@H]4[C@H]3C(=C)C[C@@]21CC [desogestrel]
Progestational Activity (progesterone activity): 9

C#C[C@]1(OC(C)=O)CC[C@H]2[C@@H]3CCC4=C[C@@H](OC(C)=O)CC[C@@H]4[C@H]3CC[C@@]21C [ethynodiol diacetate]
Progestational Activity (progesterone activity): 1.4
